The record followed here is patent publication US6911468B2, “Tyrosine phosphatase inhibitors” (Takeda Chemical Industries, Ltd., priority 2000, dated 2005).

This assay concerns the target T1, PTP1B (Homo sapiens, UniProt P18031).
T1 construct: in order to express 1-321 amino acid region encoding enzyme active domain of PTP1B; made in house; host or cells: E. coli BL21 DE3 pLysS
T1 sequence (P18031 1-321): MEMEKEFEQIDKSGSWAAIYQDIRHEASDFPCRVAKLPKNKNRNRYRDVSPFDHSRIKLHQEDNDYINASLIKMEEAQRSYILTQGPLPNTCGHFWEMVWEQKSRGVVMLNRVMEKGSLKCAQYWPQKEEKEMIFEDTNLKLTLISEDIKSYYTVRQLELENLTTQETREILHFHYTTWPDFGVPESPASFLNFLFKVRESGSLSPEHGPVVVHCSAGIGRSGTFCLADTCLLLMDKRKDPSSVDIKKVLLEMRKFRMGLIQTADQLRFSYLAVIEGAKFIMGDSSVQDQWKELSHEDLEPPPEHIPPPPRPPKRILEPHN
The assay is described as follows: Measurement of PTP1B Inhibitory Activity (dephosphorylation of p-nitrophenylphosphate, absorbance at 405 nm). In kind it is biochemical. The note with it: PTP1B enzyme active domain (1-321 amino acid, 6 histidine residues at C-terminal), pNPP substrate, pH 6.5, 37° C. for 1 hour. Here is the method: Based on the sequence of human PTP-1B registered in Genbank (M31724) database, primer 1 and primer 2 were synthesized, and PTP1B cDNA was amplified from human skeletal muscle cDNA library (Clonetech, Inc. HL5002a) according to PCR method using these primers. The cycle of reactions at 98° C. for 10 seconds, at 58° C. for 30 seconds and at 72° C. for 90 seconds was repeated 35 cycles. The PCR reaction product (1322 bp) was cloned to pT7 Blue-T vector (Novagen, Inc.) to identify the base sequence.
Human PTP 1B cDNA (1322 bp) (100 ng) was amplified with primer 3 and primer 4 in order to express 1-321 amino acid region encoding enzyme active domain of PTP1B. The PCR reaction product (976 bp) was cloned to pT7 Blue-T vector (Novagen, Inc.) to identify the base sequence.
The pT7 Blue-T vector-human PTP1B cDNA (976 bp) was cleaved with restriction enzymes NdeI and SalI (Takara Shuzo Co., Ltd.) and subjected to electrophoresis using 0.7% agarose gel, and a 969 bp fragment was excised and purified. The fragment was introduced into pET32a (+) vector (Novagen, Inc.) cleaved with restriction enzymes NdeI and XhoI (Takara Shuzo Co., Ltd.), to constitute a vector pET32a (+)-human PTP1B cDNA (969 bp), which expresses PTP1B (321 amino acid) with 6 histidine residues binded to a C-terminal thereof under a control of T7 lac promotor.
E.coli BL21 DE3 pLysS (Novagen, Inc.) was transformed with the pET32a (+)-human PTP 1B cDNA (969 bp) to give an ampicillin (50 μg/ml) resistant bacterium. This was shake cultured at 37° C. using 5L of 2xYT medium (ampicillin (50 μg/ml)). When OD600nm reached to 0.5, IPTG (Isopropyl b-D-Thiogalactoside) was added to the culture medium so as to be 1 mM in order to induce the expression of protein, and this medium was further cultured at 37° C. overnight. The bacterium was collected by centrifugation (8000 rpm, 10 minutes, 4° C.).
The bacterium was suspended in lysis buffer (50 ml) (20 mM Tris HCl (pH 8.0), 0.5 M NaCl, 1 mM PMSF, 5 mM benzamidine, Lysozyme 5 mg) and crushed by sonication. To the supernatant after centrifuging (12000 rpm, 10 minutes, 4° C.) was added imidazole so as to be 50 mM and the mixture was mixed with His Bind resin (Novagen, Inc.) binded with Ni ion (4° C., overnight). The mixture was washed with 200 ml of (20 mM Tris HCl (pH 8.0), 0.5 M NaCl, 1 mM PMSF, 5 mM benzamidine, 50 mM imidazole), eluted with (20 mM Tris HCl (pH 8.0), 0.5 M NaCl, 1 mM PMSF, 5 mM benzamidine, 400 mM imidazole) and concentrated by centrifugation using Ultrafree-15 Biomax-50 (MILLIPORE Corp.) (11 mg/ml, 4ml). The purified protein (PTP1B) was identified by Western blotting method using SDS-PAGE, coomassie Blue stain and anti-PTP1B antibody (UBI Inc.).
The PTP1B inhibitory activity of the test compound was evaluated by measuring the ability of the test compound to dephosphorylate p-nitrophenylphosphate (pNPP) (a change of the absorbance at 405 nm).
To a buffer for measurement of the activity (0.1 M sodium acetate (pH 6.5), 1 mM EDTA, 10 mM DTT) (10 ml) was added PTP1B enzyme solution (2 μl) and the mixture was added to each well of a 96-well microtiter plate (100 μl each). A solution of the test compound in DMSO (10 μl) and 2 mM pNPP/the buffer for measurement of the activity (90 μl) were then added to each well, and the absorbance at 405 nm was measured. After keeping at 37° C. for 1 hour, the absorbance was measured again to evaluate a change of the absorbance. Regarding the change of the absorbance in the absence of the test compound as 100%, the concentration of the compound necessary for 50% inhibition (IC50 value) was calculated.

In general, IC50 refers to the point on the concentration scale where inhibition reaches its midpoint.

In turn, `O=C(O)[C@@H](Cc1ccccc1)Oc1ccc(-c2cccn2-c2ccc(Br)cc2)cc1` [Example 2, (2R)-2-{4-[1-(4-Bromophenyl)-1H-pyrrol-2-yl]phenoxy}-3-phenylpropanoic acid] gave a 50% inhibitory concentration (IC50) of 0.89 µM.

In turn, `Cc1ccc(-c2ccc(/C=C/C(=O)O)cc2)n1-c1ccc(/C=C/C(=O)O)cc1` [Example 4, (2E)-3-[4-(1-{4-[(1E)-2-Carboxyethenyl]phenyl}-5-methyl-1H-pyrrol-2-yl)phenyl]-2-propenoic acid] returned an IC50 of 6.48 µM.

`Cc1ccc(-c2ccc(O[C@H](Cc3ccccc3)C(=O)O)cc2)n1-c1ccc(Br)cc1` [Example 6, (2R)-2-{4-[1-(4-Bromophenyl)-5-methyl-1H-pyrrol-2-yl]phenoxy}-3-phenylpropanoic acid]: half-maximal inhibition (IC50) required 0.5 µM.

The molecule `Cc1ccc(-c2cc(Br)c(O[C@H](Cc3ccccc3)C(=O)O)c(Br)c2)n1-c1ccc(Br)cc1` [Example 8, (2R)-2-{2,6-Dibromo-4-[1-(4-bromophenyl)-5-methyl-1H-pyrrol-2-yl]phenoxy}-3-phenylpropanoic acid] returned a half-maximal inhibitory concentration (IC50) of 0.38 µM. The IC50 values of the last two molecules are within 1.5-fold of each other.

`Cc1ccc(-c2ccc(-c3ccc(O[C@H](Cc4ccccc4)C(=O)O)cc3)cc2)n1-c1ccc(Br)cc1` [Example 10, (2R)-2-({4′-[1-(4-Bromophenyl)-5-methyl-1H-pyrrol-2-yl][1,1′-biphenyl]-4-yl}oxy)-3-phenylpropanoic acid] gave an IC50 of 0.34 µM. This IC50 and that of the molecule before are within 1.5-fold of each other.

`O=C(O)CCc1ccc(-c2cccn2-c2ccc(CCC(=O)O)cc2)cc1` [Example 14, 3-(4-{1-[4-(2-Carboxyethyl)phenyl]-1H-pyrrol-2-yl}phenyl)propanoic acid]: half-maximal inhibition (IC50) required 5.87 µM.

For the molecule `O=C(O)[C@@H](Cc1ccccc1)Oc1ccc(-c2cccn2-c2ccc(O[C@H](Cc3ccccc3)C(=O)O)cc2)cc1` [Example 16, (2R)-2-{4-[1-(4-{[(1R)-1-Carboxy-2-phenylethyl]oxy}phenyl)-1H-pyrrol-2-yl]phenoxy}-3-phenylpropanoic acid], half-maximal inhibition (IC50) required 0.41 µM. Compared with the last molecule, the IC50 is about 14-fold lower.

`O=C(O)[C@@H](Cc1ccccc1)Oc1ccc(-n2cccc2-c2ccc(Br)cc2)cc1` [Example 18, (2R)-2-{4-[2-(4-bromophenyl)-1H-pyrrol-1-yl]phenoxy}-3-phenylpropanoic acid] yielded an IC50 of 1.01 µM. Compared with the last molecule, the IC50 is about 2.5-fold higher.

In turn, `CCc1ccc(-c2ccc(O[C@H](Cc3ccccc3)C(=O)O)cc2)n1-c1ccc(Br)cc1` [Example 20, (2R)-2-{4-[1-(4-bromophenyl)-5-ethyl-1H-pyrrol-2-yl]phenoxy}-3-phenylpropanoic acid] showed an IC50 of 0.53 µM.

On to `O=C(O)[C@@H](Cc1ccccc1)Oc1ccc(-c2ccc(-c3ccccc3)n2-c2ccc(Br)cc2)cc1` [Example 22, (2R)-2-{4-[1-(4-Bromophenyl)-5-phenyl-1H-pyrrol-2-yl]phenoxy}-3-phenylpropanoic acid], for which the IC50 is 0.71 µM.

In turn, `Cc1cc(-c2ccc(O[C@H](Cc3ccccc3)C(=O)O)cc2)n(-c2ccc(Br)cc2)c1C` [Example 24, (2R)-2-{4-[1-(4-Bromophenyl)-4,5-dimethyl-1H-pyrrol-2-yl]phenoxy}-3-phenylpropanoic acid] gave an IC50 of 0.32 µM.

`Cc1cc(C)n(-c2ccc(Br)cc2)c1-c1ccc(O[C@H](Cc2ccccc2)C(=O)O)cc1` [Example 26, (2R)-2-{4-[1-(4-Bromophenyl)-3,5-dimethyl-1H-pyrrol-2-yl]phenoxy}-3-phenylpropanoic acid] registered an IC50 of 0.42 µM.

On to `CCCc1cc(C)n(-c2ccc(Br)cc2)c1-c1ccc(O[C@H](Cc2ccccc2)C(=O)O)cc1` [Example 28, (2R)-2-{4-[1-(4-Bromophenyl)-5-methyl-3-propyl-1H-pyrrol-2-yl]phenoxy}-3-phenylpropanoic acid], for which the IC50 is 0.48 µM.

In the case of `Cc1cc(-c2ccccc2)c(-c2ccc(O[C@H](Cc3ccccc3)C(=O)O)cc2)n1-c1ccc(Br)cc1` [Example 30, (2R)-2-{4-[1-(4-Bromophenyl)-5-methyl-3-phenyl-1H-pyrrol-2-yl]phenoxy}-3-phenylpropanoic acid], 0.72 µM corresponded to half-maximal inhibition (IC50).

As for `Cc1ccc(-c2ccc(O[C@H](Cc3c[nH]c4ccccc34)C(=O)O)cc2)n1-c1ccc(Br)cc1` [Example 32, (2R)-2-{4-[1-(4-Bromophenyl)-5-methyl-1H-pyrrol-2-yl]phenoxy}-3-(1H-indol-3-yl)propanoic acid], the IC50 amounted to 2.1 µM.

Regarding `CCCc1ccc(-c2ccc(O[C@H](Cc3ccccc3)C(=O)O)cc2)n1-c1ccc(Br)cc1` [Example 34, (2R)-2-{4-[1-(4-Bromophenyl)-5-propyl-1H-pyrrol-2-yl]phenoxy}-3-phenylpropanoic acid], the half-maximal inhibitory concentration (IC50) turned out to be 1.1 µM.

`O=C(O)[C@@H](Cc1ccccc1)Oc1ccc(-c2cccn2-c2ccccc2)cc1` [Example 36, (2R)-2-[4-(1-Phenyl-1H-pyrrol-2-yl)phenoxy]-3-phenylpropanoic acid] came in with an IC50 of 1.43 µM.

Molecule `Cc1ccc(-n2cccc2-c2ccc(O[C@H](Cc3ccccc3)C(=O)O)cc2)cc1` [Example 38, (2R)-2-{4-[1-(4-Methylphenyl)-1H-pyrrol-2-yl]phenoxy}-3-phenylpropanoic acid] returned a concentration for half-maximal inhibition (IC50) of 1.6 µM.

In turn, `O=C(O)[C@@H](Cc1ccccc1)Oc1ccc(-c2cccn2-c2ccc(Cl)cc2)cc1` [Example 40, (2R)-2-{4-[1-(4-Chlorophenyl)-1H-pyrrol-2-yl]phenoxy}-3-phenylpropanoic acid] showed a 50% inhibitory concentration (IC50) of 1.2 µM.

`O=C(O)[C@@H](Cc1ccccc1)Oc1ccc(-c2cccn2-c2ccc(C(F)(F)F)cc2)cc1` [Example 42, (2R)-2-{4-[1-(4-Trifluoromethylphenyl)-1H-pyrrol-2-yl]phenoxy}-3-phenylpropanoic acid] came in with a 50% inhibitory concentration (IC50) of 4.9 µM.

In turn, `Cc1ccc(-c2ccc(O[C@H](Cc3ccccc3)C(=O)O)cc2)n1-c1ccc(Cl)cc1` [Example 44, (2R)-2-{4-[1-(4-chlorophenyl)-5-methyl-1H-pyrrol-2-yl]phenoxy}-3-phenylpropanoic acid] yielded an IC50 of 0.33 µM.

In the case of `Cc1ccc(-c2ccc(O[C@H](Cc3ccccc3)C(=O)O)cc2)n1-c1ccc(C(F)(F)F)cc1` [Example 46, (2R)-2-{4-[5-Methyl-1-(4-trifluoromethylphenyl)-1H-pyrrol-2-yl]phenoxy}-3-phenylpropanoic acid], 0.4 µM corresponded to half-maximal inhibition (IC50). This IC50 and that of the molecule before are within 1.5-fold of each other.

With `Cc1ccc(-c2ccc(O[C@H](Cc3ccccc3)C(=O)O)cc2)n1Cc1ccccc1` [Example 48, (2R)-2-[4-(1-Benzyl-5-methyl-1H-pyrrol-2-yl)phenoxy]-3-phenylpropanoic acid], half-maximal inhibition (IC50) required 0.36 µM.

With `Cc1ccc(-c2ccc(O[C@@H](Cc3ccccc3)C(=O)O)cc2)n1-c1ccc(Br)cc1` [Example 50, (2S)-2-{4-[1-(4-Bromophenyl)-5-methyl-1H-pyrrol-2-yl]phenoxy}-3-phenylpropanoic acid], the IC50 was determined as 0.94 µM.
